Here are results for 32 compounds from patent US20240254119A1 (THIRD HARMONIC BIO, INC., priority 2022, published 2024).

This assay deals with T1, wtKIT (Homo sapiens, UniProt P10721).
T1 construct: 1888289AM in the reaction mixtures
The assay can be described thus: HTRF biochemical assay, wtKIT (phosphorylation of a peptide substrate). To be noted: Table 4. The protocol: Exemplary compounds were tested for ability to inhibit the phosphorylation of a peptide substrate by the tyrosine kinase wt KIT, PDGFRα, or CSF-1R. Assay procedures and results are described below.
Enzyme, substrate, and cofactors (ATP and Mn^2+) are combined in a well of a microtiter plate and incubated for 3 hours at 25° C. At the end of the incubation, the reaction is quenched by the addition of an EDTA-containing buffer.
The substrate used in the CSF-1R and PDGFRα assay is FAM-[…]-CONH2 (FAM is carboxyfluorescein). Peptide should be >95% purity. The substrate for the KIT assay is FAM-[…]-NH2.
• 1. To a well of a 384-wellplate add 5 μL of 2× enzyme buffer (or control). • 2. Add 100 nL of 100× compound. Enzyme and compound may be pre-incubated at this time if desired. • 3. Add 5 μL of 2× substrate buffer. • 4. Incubate plate at 25° C. for 3 hours. • 5. Add 10 uL of anti-phosphotyrosine antibody buffer. • 6. Read plate in BioTek Synergy Reader. Reaction Conditions for wtKIT Assay
• 100 mM HEPES, pH 7.5 0.1% BSA • 0.01% Triton x-100 • 1 mM DTT • 10 mM MnCl2 • 10 μM Sodium Orthovanadate • 10 μM Beta-Glycerophosphate • 400 μM ATP • 1% DMSO (from compound) • 1 μM FAM-[…]-CONH2, 5.0 nM wtKIT Enzyme (1888289AM)* • *Specific activity may vary from lot to lot. Enzyme concentration may need to be adjusted to yield 10-20% conversion of substrate to product.

T1 sequence (P10721 26-976): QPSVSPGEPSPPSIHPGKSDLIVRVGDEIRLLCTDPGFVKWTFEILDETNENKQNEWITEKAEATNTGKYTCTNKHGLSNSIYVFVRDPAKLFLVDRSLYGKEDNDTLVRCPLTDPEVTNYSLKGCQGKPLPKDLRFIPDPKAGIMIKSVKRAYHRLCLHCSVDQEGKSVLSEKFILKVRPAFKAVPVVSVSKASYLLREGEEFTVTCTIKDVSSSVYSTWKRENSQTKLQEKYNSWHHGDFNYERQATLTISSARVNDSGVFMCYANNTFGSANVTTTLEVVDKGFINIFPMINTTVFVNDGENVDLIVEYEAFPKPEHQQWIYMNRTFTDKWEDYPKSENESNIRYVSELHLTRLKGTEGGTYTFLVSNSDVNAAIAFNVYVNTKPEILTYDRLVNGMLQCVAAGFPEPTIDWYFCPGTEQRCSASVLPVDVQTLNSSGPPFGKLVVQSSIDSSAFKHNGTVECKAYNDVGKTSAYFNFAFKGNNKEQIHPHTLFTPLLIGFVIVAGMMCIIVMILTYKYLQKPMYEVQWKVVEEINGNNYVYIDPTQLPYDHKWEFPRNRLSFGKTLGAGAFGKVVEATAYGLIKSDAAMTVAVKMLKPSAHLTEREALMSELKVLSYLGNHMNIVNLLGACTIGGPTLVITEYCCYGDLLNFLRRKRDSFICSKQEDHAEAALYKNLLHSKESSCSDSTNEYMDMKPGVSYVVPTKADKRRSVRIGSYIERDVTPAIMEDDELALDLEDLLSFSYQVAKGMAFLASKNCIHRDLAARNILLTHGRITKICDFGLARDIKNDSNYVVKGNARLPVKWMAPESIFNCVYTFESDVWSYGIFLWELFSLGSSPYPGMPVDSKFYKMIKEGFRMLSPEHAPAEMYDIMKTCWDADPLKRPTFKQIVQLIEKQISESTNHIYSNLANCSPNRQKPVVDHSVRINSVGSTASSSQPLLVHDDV

Consider `Cc1ccc(-c2noc(C[C@H](O)C(F)F)n2)cc1NC(=O)c1cnc2cc(-c3ccn(C)n3)ccn12` [Compound I-555, (S)—N-(5-(5-(3,3-difluoro-2-hydroxypropyl)-1,2,4-oxadiazol-3-yl)-2-methylphenyl)-7-(1-methyl-1H-pyrazol-3-yl)imidazo[1,2-a]pyridine-3-carboxamide], for which the IC50 (commonly the point on the concentration scale where inhibition reaches its midpoint) was at most 50 nM.

As to `Cc1ccc(-c2noc([C@H]3C[C@@H]3F)n2)cc1NC(=O)c1cnc2cc(CCOCCO)ccn12` [Compound I-475, N-[5-[5-[(1R,2S)-2-fluorocyclopropyl]-1,2,4-oxadiazol-3-yl]-2-methyl-phenyl]-7-[2-(2-hydroxyethoxy)ethyl]imidazo[1,2-a]pyridine-3-carboxamide], the IC50 is at most 50 nM.

For the compound `CCNc1ccn2c(C(=O)Nc3cc(-c4ncon4)ccc3C)cnc2c1` [Compound I-706], the half-maximal inhibitory concentration (IC50) is at most 50 nM.

For the compound `Cc1ccc(-c2noc(CC(O)CN3CCOCC3)n2)cc1NC(=O)c1cnc2ccccn12` (centres unmarked) [Compound I-543], the concentration for half-maximal inhibition (IC50) lay in the range of 50 to 500 nM.

As for `Cc1ccc(-c2noc(C[C@H](O)C(F)F)n2)cc1NC(=O)c1cnc2cc(COCc3ccn[nH]3)ccn12` [Compound I-586, (S)-7-(((1H-pyrazol-5-yl)methoxy)methyl)-N-(5-(5-(3,3-difluoro-2-hydroxypropyl)-1,2,4-oxadiazol-3-yl)-2-methylphenyl)imidazo[1,2-a]pyridine-3-carboxamide], the half-maximal inhibitory concentration (IC50) was at most 50 nM.

Regarding `Cc1ccc(-c2noc(C[C@H](O)C(F)F)n2)cc1NC(=O)c1cnc2cc(COCc3c[nH]nn3)ccn12` [Compound I-575, (S)-7-(((1H-1,2,3-triazol-4-yl)methoxy)methyl)-N-(5-(5-(3,3-difluoro-2-hydroxypropyl)-1,2,4-oxadiazol-3-yl)-2-methylphenyl)imidazo[1,2-a]pyridine-3-carboxamide], the half-maximal inhibitory concentration (IC50) is at most 50 nM.

Consider `Cc1ccc(-c2noc(C3CC3F)n2)cc1NC(=O)c1cnc2cc(C(C)OCCO)ccn12` (single isomer, unassigned) [Compound I-450, N-[5-[5-[(1R,2S)-2-fluorocyclopropyl]-1,2,4-]-7-[(1S*)-1-(2-hydroxyethoxadiazol-3-yl]-2-methyl-phenyloxy)ethyl]imidazo[1,2-a]pyridine-3-carboxamide], for which the IC50 is at most 50 nM.

For `COc1ccn2c(C(=O)Nc3cc(-c4noc(CC5CCCO5)n4)ccc3C)cnc2c1` (centres unmarked) [Compound I-582, 7-methoxy-N-(2-methyl-5-(5-((tetrahydrofuran-2-yl)methyl)-1,2,4-oxadiazol-3-yl)phenyl)imidazo[1,2-a]pyridine-3-carboxamide], the IC50 is at most 50 nM.

On to `Cc1ccc(-c2noc(-c3ccccn3)n2)cc1NC(=O)c1cnc2cc(COCC(C)(C)O)ccn12` [Compound I-573], for which the IC50 was in the range of 50 to 500 nM.

In the case of `Cc1nc(-c2ccc(C)c(NC(=O)c3cnc4ccc(-c5ccn(C)n5)cn34)c2)no1` [Compound I-532, 6-(1-methyl-1H-pyrazol-3-yl)-N-(2-methyl-5-(5-methyl-1,2,4-oxadiazol-3-yl)phenyl)imidazo[1,2-a]pyridine-3-carboxamide], the 50% inhibitory concentration (IC50) is at most 50 nM.

On to `Cc1ccc(-c2noc([C@H]3C[C@@H]3F)n2)cc1NC(=O)c1cnc2cc(COCC(O)C(F)F)ccn12` (stereo partly drawn) [Compound I-499, 7-((3,3-difluoro-2-hydroxypropoxy)methyl)-N-(5-(5-((1R,2S)-2-fluorocyclopropyl)-1,2,4-oxadiazol-3-yl)-2-methylphenyl)imidazo[1,2-a]pyridine-3-carboxamide], for which the concentration for half-maximal inhibition (IC50) was at most 50 nM.

`CNC(C)COCc1ccn2c(C(=O)Nc3cc(-c4noc(CC(O)C(F)F)n4)ccc3C)cnc2c1` (centres unmarked) [Compound I-598]: the IC50 is 50 to 500 nM.

Turning to `Cc1ccc(-c2noc([C@H]3C[C@@H]3F)n2)cc1NC(=O)c1cnc2cc(COCC(C)(C)O)c(F)cn12` [Compound I-498, 6-fluoro-N-[5-[5-[(1R,2S)-2-fluorocyclopropyl]-1,2,4-oxadiazol-3-yl]-2-methyl-phenyl]-7-[(2-hydroxy-2-methyl-propoxy)methyl]imidazo[1,2-a]pyridine-3-carboxamide], the IC50 was at most 50 nM.

`Cc1ccc(-c2noc([C@@H]3CC4(CC4)CN3)n2)cc1NC(=O)c1cnc2cc(-c3cscn3)ccn12` [Compound I-635, N-[5-[5-[(6S)-5-azaspiro[2.4]heptan-6-yl]-1,2,4-oxadiazol-3-yl]-2-methyl-phenyl]-7-thiazol-4-yl-imidazo[1,2-a]pyridine-3-carboxamide]: the IC50 is at most 50 nM.

On to `Cc1ccc(-c2noc(C[C@H](O)C(F)F)n2)cc1NC(=O)c1cnc2cc(COCc3nc[nH]n3)ccn12` [Compound I-587, N-[5-[5-[(2S)-3,3-difluoro-2-hydroxy-propyl]-1,2,4-oxadiazol-3-yl]-2-methyl-phenyl]-7-(1H-1,2,4-triazol-3-ylmethoxymethyl)imidazo[1,2-a]pyridine-3-carboxamide], for which the half-inhibitory concentration (IC50) is at most 50 nM.

As for `Cc1ccc(-c2noc([C@H]3C[C@@H]3F)n2)cc1NC(=O)c1cnc2c(F)c(COCCO)ccn12` [Compound I-472], the IC50 fell in the range of 50 to 500 nM.

As for `Cc1ccc(-c2noc([C@H]3C[C@@H]3F)n2)cc1NC(=O)c1cnn2ccc(C(F)F)cc12` [Compound I-494, 5-(difluoromethyl)-N-(5-(5-((1R,2S)-2-fluorocyclopropyl)-1,2,4-oxadiazol-3-yl)-2-methylphenyl)pyrazolo[1,5-a]pyridine-3-carboxamide], the IC50 is at most 50 nM.

As for `Cc1ccc(-c2nc(-c3ccc(C)c(NC(=O)c4cnc5cc(C)ccn45)c3)no2)nc1` [Compound I-544], the IC50 lay in the range of 50 to 500 nM.

As for `Cc1ccc(-c2noc(CC(O)C(C)(C)C)n2)cc1NC(=O)c1cnc2ccccn12` (centres unmarked) [Compound I-519], the 50% inhibitory concentration (IC50) is at most 50 nM.

Regarding `COCc1ccn2c(C(=O)Nc3cc(-c4noc([C@@H]5CC6(CC6)CN5)n4)ccc3C)cnc2c1` [Compound I-638, N-[5-[5-[(6S)-5-azaspiro[2.4]heptan-6-yl]-1,2,4-oxadiazol-3-yl]-2-methyl-phenyl]-7-(methoxymethyl)imidazo[1,2-a]pyridine-3-carboxamide], the IC50 was at most 50 nM.

With `Cc1ccc(-c2noc(N3CC(F)(F)C3)n2)cc1NC(=O)c1cnc2cc(OCCCN3CCCC3)ccn12` [Compound I-631, N-(5-(5-(3,3-difluoroazetidin-1-yl)-1,2,4-oxadiazol-3-yl)-2-methylphenyl)-7-(3-(pyrrolidin-1-yl)propoxy)imidazo[1,2-a]pyridine-3-carboxamide], the half-maximal inhibitory concentration (IC50) is at most 50 nM.

Regarding `COC[C@@H](O)c1nc(-c2ccc(C)c(NC(=O)c3cnc4cc(C)ccn34)c2)no1` [Compound I-607], the IC50 fell in the range of 500 to 5000 nM.

For the compound `Cc1ccc(-c2noc(-c3cccnc3)n2)cc1NC(=O)c1cnc2ccccn12` [Compound I-738], the IC50 was in the range of 50 to 500 nM.

`COCC(O)c1nc(-c2ccc(C)c(NC(=O)c3cnc4cc(C)ccn34)c2)no1` (centres unmarked) [Compound I-608]: the IC50 lay in the range of 50 to 500 nM.

`Cc1ccc(-c2noc(CC(O)C3COC3)n2)cc1NC(=O)c1cnc2ccccn12` (centres unmarked) [Compound I-591]: the half-maximal inhibitory concentration (IC50) is 50 to 500 nM.

As to `Cc1ccc(-c2noc([C@H]3C[C@@H]3F)n2)cc1NC(=O)c1cnc2cc(COCC3(O)COC3)ccn12` [Compound I-490, N-(5-(5-((1R,2S)-2-fluorocyclopropyl)-1,2,4-oxadiazol-3-yl)-2-methylphenyl)-7-(((3-hydroxyoxetan-3-yl)methoxy)methyl)imidazo[1,2-a]pyridine-3-carboxamide], the IC50 is at most 50 nM.

Turning to `Cc1ccc(-c2noc([C@H]3C[C@@H]3F)n2)cc1NC(=O)c1cnc2cc3c(cn12)COC3C` (single isomer, unassigned) [Compound I-470, (6S*)—N-[5-[5-[(1R,2S)-2-fluorocyclopropyl]-1,2,4-oxadiazol-3-yl]-2-methyl-phenyl]-6-methyl-5-oxa-1,10-diazatricyclo[7.3.0.03,7]dodeca-2,7,9,11-tetraene-12-carboxamide], the IC50 was at most 50 nM.

For the compound `Cc1nc(-c2ccc(C)c(NC(=O)c3cnc4cc(-c5ccn(C)n5)ccn34)c2)no1` [Compound I-530, 7-(1-methyl-1H-pyrazol-3-yl)-N-(2-methyl-5-(5-methyl-1,2,4-oxadiazol-3-yl)phenyl)imidazo[1,2-a]pyridine-3-carboxamide], the IC50 is at most 50 nM.

`Cc1ccn2c(C(=O)Nc3cc(-c4noc(CCC(C)(O)C(F)(F)F)n4)ccc3C)cnc2c1` (centres unmarked) [Compound I-752, 7-methyl-N-(2-methyl-5-(5-(4,4,4-trifluoro-3-hydroxy-3-methylbutyl)-1,2,4-oxadiazol-3-yl)phenyl)imidazo[1,2-a]pyridine-3-carboxamide]: the 50% inhibitory concentration (IC50) was at most 50 nM.

With `Cc1nc(-c2ccc(C)c(NC(=O)c3cnc4ccccn34)c2)no1` [Compound I-564], the IC50 was 50 to 500 nM.

Regarding `Cc1ccc(-c2noc([C@H]3C[C@@H]3F)n2)cc1NC(=O)c1cnc2ccc(COCCO)cn12` [Compound I-453, N-[5-[5-[(1R,2S)-2-fluorocyclopropyl]-1,2,4-oxadiazol-3-yl]-2-methyl-phenyl]-6-(2-hydroxyethoxymethyl)imidazo[1,2-a]pyridine-3-carboxamide], the IC50 is at most 50 nM.

On to `Cc1ccc(-c2noc([C@H]3C[C@@H](N)C3)n2)cc1NC(=O)c1cnc2cc(Cl)ccn12` [Compound I-623], for which the half-inhibitory concentration (IC50) was in the range of 500 to 5000 nM.
